Data as given in US20210369678A1, “BENZIMIDAZOLE DERIVATIVE FOR USE IN THE TREATMENT OF INFLAMMATORY DISORDERS” (Akebia Therapeutics, Inc., priority 2018, published 2021).
“Also recorded” adds a separate entry of the source. Like-named read-outs stand apart in the source and are kept apart here.

Legend:
DSS-induced colitis = assay: Dextran sulfate sodium (DSS)-induced colitis model; type: in vivo, mice
Protocol: Colitis was induced in 121 mice by exposure to 3% DSS-treated drinking water from Day 0 to Day 5. Animals were dosed via oral gavage (p.o.) with Compound 1, 6-thioguanine, or vehicle control once a day (q.d.) from Day 6 to 19. Video endoscopy was performed on days 10, 14, and 19. At these time points, colitis severity was assessed in all animals using video endoscopy, where images were taken and colitis severity scored by a blinded observer. During each endoscopy procedure, stool consistency was recorded using a 0-4 scale and an image from each animal was captured at the most severe region of disease that was identified. Following endoscopy on Day 19, all animals for the efficacy component were euthanized with CO2 inhalation. Blood was collected via cardiac puncture and placed in K2EDTA tubes for preparation of plasma. A small whole blood sample was retained for the assessment of hemoglobin and hematocrit while the remaining sample was processed to plasma, then split into two samples and snap frozen. A complete blood count, including hematocrit and hemoglobin levels, was assessed using an automated PCE-90 Vet hematology unit (HTI). FIG. 3 depicts the serum hemoglobin concentration after 14 days of oral dosing Compound 1 in mice with dextran sulfate sodium (DSS)-induced colitis. FIG. 4 depicts Endoscopy Colitis Scores in mice with dextran sulfate sodium (DSS)-induced colitis dosed via oral gavage with Compound 1, 6-thioguanine, or vehicle control once a day after 19 days.

[1] = IV/p.o. pharmacokinetic study in monkey; type: in vivo, male cynomolgus monkeys
Protocol: (§1) Intravenous and oral (IV/p.o.) pharmacokinetic (PK) studies in rat, dog and monkey were carried out to facilitate the projection of human PK for Compound 1.
(§2) In the rat studies, Compound 1 was dosed both as a suspension (in 0.5% HPMC) and as a solution in 20% HPPCD. Experiments in the dog and monkey were dosed as a suspension in 0.5% HPMC.

[2] = IV/p.o. pharmacokinetic study in dog; type: in vivo, male beagle dogs; settings: for bioavailability: male, beagle, po, p.o. suspension in 0.5% HPMC
Protocol: as §1, §2

[3] = IV/p.o. pharmacokinetic study in rat; type: in vivo, male Sprague Dawley rats
Protocol: Separate cohorts (n=3) of non-fasted male Sprague Dawley rats were administered Compound 1 at a dose of 1 mg/kg intravenously (IV) via tail vein, 5 mg/kg orally as a solution, or 5 mg/kg orally as a suspension. Blood samples were collected at 0.033 (IV only), 0.083 (IV only), 0.25, 0.5, 1, 2, 4, 8, and 24 hrs post dose after administration. Blood was harvested via the jugular vein catheter. Blood samples were collected into tubes containing K2EDTA and placed on wet ice. The plasma fraction was separated by centrifugation and frozen at −20 to −80 ° C. Concentrations of Compound 1 in plasma were determined using a qualified liquid chromatography-triple quadrupole mass spectrometry. FIG. 2 depicts the plasma concentration of Compound 1 in healthy male SD rats over 24 hours.
as §1, §2

systemic EPO = assay: Systemic EPO response after oral and intraperitoneal dosing (MSD assay); type: in vivo, male Balb/c mice; settings: 6 h post dosing
Protocol: (§3) The effect of both oral (p.o.) and intraperitoneal (i.p.) doses of Compound 1 on systemic EPO in male Balb/c mice was investigated, along with plasma drug concentrations at 1 h and 6 h post dosing. Systemic EPO was measured 6 h post dosing of Compound 1 using a commercially-available MSD assay system, correlated to standard curves. Plasma drug concentrations were quantitated by LC MS/MS. […] FIG. 1 depicts the EPO response to oral (p.o.) and intraperitoneal (i.p.) doses of Compound 1 at 6 h in BalbC mice.

[4] = Caco-2 cell monolayer permeability; type: in vitro ADME; settings: human, tested at 10 μM, read-out: apical-to-basolateral apparent permeability Papp
Protocol: In Caco-2 cell monolayers, Compound 1 had low apical-to-basolateral apparent permeability Papp value of <0.2×10^−6 cm/s when tested at 10 μM.

[5] = Plasma drug concentrations after oral and intraperitoneal dosing (LC MS/MS); type: in vivo, male Balb/c mice; settings: male, Balb/c, mouse, read-out: blood levels; for concentration at 1 h: 1 h post dosing; for concentration at 6 h: 6 h post dosing
Protocol: as §3

TNBS-induced colitis = assay: Trinitrobenzene sulfonic acid (TNBS)-induced colitis model; type: in vivo, male SJL mice
Protocol: A study was conducted to determine the effects of Compound 1 compared to positive control prednisolone dosed by the oral (p.o.) route in trinitrobenzene sulfonic acid (TNBS)-induced colitis in male SJL mice (FIG. 5). The mice were divided into 5 groups. The mice were fasted for 12 to 16 hours prior to TNBS challenge. On day 0 of the study, mice in groups 2 through 5 were infused intrarectally (IR) with 50 μL TNBS solution (1.5 mg in 50% EtOH/PBS per mouse) to induce colitis. The mice in group 2 were dosed (PO) daily (QD) on days 0 to 3 with vehicle (0.5% HPMC, 0.1% Tween 80 in water). The mice in group 4 were dosed p.o. daily on days 0 to 3 with Compound 1 at 10 mpk, and the mice in group 5 were dosed p.o. daily on days 0 to 3 with Compound 1 at 30 mpk. Prednisone (group 3) was used as a positive control and was dosed p.o., QD on days 0 to 3. Group 1 served as naïve controls. On study day 4, the mice were anesthetized with Isoflurane, bled to exsanguination, and then euthanized for necropsy and tissue collection. Efficacy evaluation was based on animal body weight measurements, colon weights, colon lengths, colon weight per length ratios, histopathology of proximal and distal colons—evaluated as proximal only, distal only, or full colon (proximal and distal). Longitudinal sections of proximal and distal colon were stained with hematoxylin and eosin (H&E). Sections were analyzed using the criteria below and were scored for inflammation, gland loss, and mucosal necrosis. [table] [table] [table] [table] The histopathology sum score was calculated as a sum of inflammation, gland loss, erosion/necrosis (derived from the measure of total length vs. length of mucosal necrosis, i.e., percent), and hyperplasia scores.

[6] = 10 and 30 mg/kg p.o. QD days 0 to 3

estimated fa*fg (fa: fraction absorbed; fg: fraction that escapes gut metabolism) [1]: ≤ 0.12
terminal t1/2 [1]: short
bioavailability ([1]; male, cynomolgus monkey, plasma, po, p.o. suspension in 0.5% HPMC): ≤ 5%
estimated fa*fg (fa: fraction absorbed; fg: fraction that escapes gut metabolism) [2]: ≤ 0.12
terminal t1/2 [2]: short
bioavailability ([2]; in vivo): ≤ 5%
bioavailability ([2]; plasma): < 5%
estimated fa*fg (fa: fraction absorbed; fg: fraction that escapes gut metabolism) [3]: ≤ 0.12
terminal t1/2 [3]: short
bioavailability ([3]; male, Sprague-Dawley, plasma, po, 5 mg/kg, p.o. dosing): ≤ 5%
Papp A→B at 10 μM [4]: < 0.2 ×10⁻⁶ cm/s
concentration at 1 h ([5]; ip, 100 umol/kg i.p.): 42200 nM
concentration at 6 h ([5]; ip, 100 umol/kg i.p.): 5100 nM
concentration at 1 h ([5]; po, 100 umol/kg p.o.): 100 nM
concentration at 6 h ([5]; po, 100 umol/kg p.o.): 20 nM
Compound: O=C(O)c1cnn(-c2nc3cc(S(=O)(=O)c4ccccc4)c(Cl)cc3[nH]2)c1 [Compound 1, 1-(6-chloro-5-(phenylsulfonyl)-1H-benzo[d]imidazol-2-yl)-1H-pyrazole-4-carboxylic acid]
efficacy in mouse model of inflammatory bowel disease (DSS-induced colitis; p.o. dosing): excellent efficacy
systemic pharmacology resulting in increases in EPO/hematocrit (DSS-induced colitis; p.o. dosing, mouse models of inflammatory bowel disease): no systemic pharmacology resulting in increases in EPO/hematocrit was observed
Endoscopic Colitis Scores (DSS-induced colitis; p.o. q.d. Day 6 to 19, 3% DSS Day 0 to 5): effective at ameliorating DSS induced colitis
EPO stimulation (systemic EPO; 100 umol/kg i.p.): 34 fold above vehicle control
EPO stimulation (systemic EPO; 100 umol/kg p.o.): no EPO stimulation
body weight loss (TNBS-induced colitis; [6]): statistically significant inhibition of body weight loss; also recorded: protects against body weight loss
colon histopathology (TNBS-induced colitis; [6]): improvements in colon histopathology
colon weight/length ratio (TNBS-induced colitis; [6]): decreased colon weight/length ratios; also recorded: improves colon weight/length ratio
full-colon and proximal-colon histopathology (TNBS-induced colitis; 10 or 30 mpk p.o. QD days 0 to 3): significant beneficial effects
histopathology inflammation score (TNBS-induced colitis; p.o. QD days 0 to 3): improves the histopathology inflammation score
histopathology summed score (TNBS-induced colitis; p.o. QD days 0 to 3): improves the histopathology summed score
efficacy in mouse model of inflammatory bowel disease (TNBS-induced colitis; p.o. dosing): excellent efficacy
